“Also recorded” adds a separate entry of the source.
What was measured:
monomeric ClpB = biological target: monomeric ClpB; design: method as in PMID 10982797; conditions: read-out: Kd of monomeric ClpB toward ATP; cited from earlier work
wt ClpB = biological target: T1, wt ClpB (Escherichia coli, UniProt P63284); test: Surface plasmon resonance, immobilized wt ClpB; assay type: binding; conditions: SPR, preliminary; read-out: dissociation constant, control titration of immobilized ClpB
T1 construct: made in house
T1 sequence (P63284 whole entry): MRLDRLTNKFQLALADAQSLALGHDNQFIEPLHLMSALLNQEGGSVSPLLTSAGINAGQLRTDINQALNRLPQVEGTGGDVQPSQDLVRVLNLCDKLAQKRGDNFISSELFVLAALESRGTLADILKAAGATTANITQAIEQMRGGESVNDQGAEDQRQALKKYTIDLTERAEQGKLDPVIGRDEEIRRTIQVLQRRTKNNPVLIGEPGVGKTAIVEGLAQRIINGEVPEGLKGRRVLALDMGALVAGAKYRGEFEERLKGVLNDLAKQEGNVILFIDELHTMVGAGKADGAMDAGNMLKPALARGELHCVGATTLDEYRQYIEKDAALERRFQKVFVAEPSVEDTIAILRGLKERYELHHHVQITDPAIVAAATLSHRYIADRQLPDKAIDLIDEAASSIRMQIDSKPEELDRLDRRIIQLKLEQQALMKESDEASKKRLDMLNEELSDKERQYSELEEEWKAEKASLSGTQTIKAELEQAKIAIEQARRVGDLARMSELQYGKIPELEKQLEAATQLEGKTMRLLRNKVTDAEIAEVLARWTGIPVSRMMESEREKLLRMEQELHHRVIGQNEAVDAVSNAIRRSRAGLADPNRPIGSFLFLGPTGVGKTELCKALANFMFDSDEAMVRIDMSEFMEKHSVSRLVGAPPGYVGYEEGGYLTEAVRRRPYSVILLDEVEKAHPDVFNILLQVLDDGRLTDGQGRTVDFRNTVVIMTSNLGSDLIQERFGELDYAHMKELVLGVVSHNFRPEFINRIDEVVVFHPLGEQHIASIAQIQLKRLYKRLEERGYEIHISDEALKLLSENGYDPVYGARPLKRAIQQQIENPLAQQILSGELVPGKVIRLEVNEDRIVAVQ
Description: ClpB, DnaK, and the NBD of DnaK were extensively dialyzed against the SPR buffer (20-mM Hepes, pH 7.4, 150-mM NaCl, 20-mM MgCl2, 1-mM EDTA, 1-mM DTT). After dialysis, the protein concentration was determined by the Bradford method. The DBeQ–protein interactions were studied using a Biacore T200 instrument (GE Healthcare) at 25 °C. The proteins were diluted to 300 μg/ml in 10-mM sodium acetate buffer (pH 5 for ClpB DnaK or pH 4 for NBD) and immobilized on HC1500M sensor chips (Xantec) by standard amine coupling chemistry as described previously ([70]). A reference flow cell was created by ethyl(dimethylaminopropyl) carbodiimide/N-hydroxysuccinimide activation followed by quenching with 1 M ethanolamine (pH 9.0). Solvent correction curves were obtained at the beginning and end and after every 50 injection cycles by injecting varying DMSO concentrations (4.0, 4.4, 4.6, 4.8, 5.0, 5.2, 5.4, and 5.9% [v/v]). All experiments were performed using a flow rate of 30 μl/min.
Binding isotherms were obtained with the ligand diluted to different concentrations in the SPR running buffer HBSMTD (20-mM Hepes, pH 7.4, 140-mM NaCl, 20-mM MgCl2, 5% (v/v) DMSO, 0.005% (v/v) Tween-20). Replicate injections were performed for all samples, and a buffer-only injection was performed for every 12 injection cycles. To test the structural integrity of ClpB after immobilization on the sensor chips, we performed control titrations with ATPγS and adenosine. The dissociation constants determined from those experiments were ∼20 μM for ATPγS and ∼2 mM for adenosine. […] Moreover, the immobilized ClpB discriminated between a nucleotide analog and a nucleoside, which indicated an adequate structural integrity of ClpB on the sensor chips.
The resulting sensorgrams were analyzed using Biacore T200 Evaluation Software v3.0 according to the following procedure. Solvent correction curves were generated and applied to all data sets, and all sensorgrams were double-referenced by subtracting the most recent buffer blank injection. The signal immediately before injection stop of these corrected sensorgrams was treated as the binding response. GraphPad Prism was used for nonlinear least-squares fitting of the model assuming either noncooperative or cooperative binding of DBeQ to DnaK and ClpB, respectively.

E. coli ClpB = biological target: T2, E. coli ClpB (Escherichia coli, UniProt P63284); assay type: biochemical; conditions: 100 μM compound, 37 °C; for inhibition of the basal ClpB ATPase: no casein; for inhibition of the ClpB ATPase in the presence of casein: with κ-casein
T2 construct: made in house
T2 sequence (P63284 whole entry): as above
Description: To determine the ATPase activity, ClpB was diluted to 28 μg/ml (49-nM hexamer) in buffer C (50-mM Tris-HCl, pH 7.4, 20-mM MgCl2, 1-mM EDTA, 0.5-mM tris(2-carboxyethyl)phosphine [TCEP]). In some experiments, the ClpB solution was supplemented with 17.4 μg/ml (10 μM) κ-casein. The ClpB aliquots (18 μl) were mixed with 1 μl of the investigated compounds at different concentrations in 100% DMSO or with DMSO as a control. A sample without ClpB was used as a baseline control. After a 10-min preincubation at 37 or 45 °C, the ATP hydrolysis reaction was initiated by adding 1 μl of 100-mM ATP. The samples were incubated for 60 min (basal ClpB activity in the absence of κ-casein) or 15 min (in the presence of κ-casein) at 37 °C or 30 min at 45 °C in the absence of casein. For the E678Q ClpB variant, the incubation time in the presence of κ-casein was 60 min. After incubation, 15 μl of each sample was mixed with 200 μl of the ammonium molybdate/malachite green reagent ([67]) dispensed into a 96-well plate, followed by an addition of 30 μl of 34% sodium citrate ([68]). The plate was agitated inside a Synergy H1 reader (BioTek, Winooski, VT) for 15 min at room temperature, and the samples’ absorbance was measured at 630 nm. The readouts for ClpB-containing samples were corrected for absorbance of samples without ClpB, to account for nonenzymatic production of inorganic phosphate. A standard curve obtained with different inorganic phosphate concentrations was used to determine the amount of phosphate produced from ATP in the presence of ClpB.

p97 = tested on: p97; design: method as in PMID 25685910; conditions: cited from earlier work

Row | SMILES | Kd (monomeric ClpB) [µM] | Kd (wt ClpB) [µM] | inhibition of the basal ClpB ATPase (E. coli ClpB) | inhibition of the ClpB ATPase in the presence of casein (E. coli ClpB) | IC50 (p97) [µM]
1 | Nc1ncnc2c1ncn2[C@@H]1O[C@H](COP(=O)(O)OP(=O)(O)OP(=O)(O)O)[C@@H](O)[C@H]1O [ATP] | > 1000 | – | – | – | –
2 | Nc1ncnc2c1ncn2[C@@H]1O[C@H](CO[P@](=O)(O)O[P@](=O)(O)O[P@@](=O)(O)S)[C@@H](O)[C@H]1O [ATPγS] | – | ~20 | – | – | –
3 | COc1cccc2c(NCc3ccccc3)nc(-n3c(N)nc4ccccc43)nc12 [ML240] | – | – | None of the above compounds, except C3, showed a significant inhibition | loss of potency toward ClpB; also recorded: only C3 and DBeQ strongly inhibited | ~0.1
4 | Cc1cc(OCc2nnc(SC3CCCC3)n2-c2cccnc2)ccc1-c1ccc(S(C)(=O)=O)cc1 [NMS-873] | – | – | None of the above compounds, except C3, showed a significant inhibition | only C3 and DBeQ strongly inhibited | ~0.02
5 | Nc1ncnc2c1ncn2[C@@H]1O[C@H](CO)[C@@H](O)[C@H]1O [adenosine] | – | ~2000 | – | – | –
